Where “and” joins values, the source holds several entries; their conditions need not be identical. Identical values can stand only once. Like-named read-outs stand apart in the source and are kept apart here.
How the values were obtained:
mdx mice = test: Chronic treatment of mdx mice, laminin stain and minimum Feret diameter of myofibers; format: in vivo, mouse; conditions: Fig 7F, TA muscle, 4 wk treatment, single mice
Excerpt: Fig 7 NBD mimetics improve muscular pathology and grip strength in mdx mice. (A) Shown is the treatment regimen with NBD mimetics in mdx mice. (B) Hematoxylin–eosin staining of TA muscle from 7-wk-old, treated or untreated mdx mice. Images were taken at magnification of 20×. Representative images were shown for each treatment group. […] (E) TA muscle from 7-wk-old, treated or untreated mdx mice was stained with laminin by IHC to outline myofibers. Overall images of TA muscle were shown on the left side, and the inset panel images were shown on the right side. (F) Quantitation of minimum Feret diameter in centrally and noncentrally nucleated myofibers. (G) Forelimb force determined by grip strength test. Five-wk-old (2 wk post treatment) and 7-wk-old (4 wk post treatment) mdx mice, treated or untreated, were tested for forelimb grip strength. Five sequential tests were performed, and the force was normalized to body weight. Data were shown as mean +/− SEM. Dosages used are as follows: SR12343 (30 mg/kg), SR12460 (30 mg/kg), and 8K-NBD peptide (10 mg/kg). n = 6–7 each group. *P < 0.05, **P < 0.01. Underlying data can be found in S1 Data. eMyHC, embryonic myosin heavy chain; IHC, immunohistochemistry; NBD, NEMO-binding domain; NEMO, NF-κB essential modulator; Pax7, paired box protein 7; qRT-PCR, quantitative real-time polymerase chain reaction; TA, tibialis anterior.
To determine whether SR12343 and SR12460 improve muscle pathology, TA muscle was stained with hematoxylin–eosin to assess inflammatory infiltration, necrosis, central nucleation, and fibrosis. […] In addition, Masson trichrome stain was conducted to further measure muscle fibrosis. Chronic treatment with SR12343 reduced muscle fibrosis (blue) in diaphragm and TA muscle tissues in comparison to control group (Fig 8A & 8B). To further quantitate the extent of inflammation in mdx muscle tissues, diaphragm and TA muscle were immunostained for cluster of differentiation 68 (CD68), a macrophage marker. Treatment with SR12343 reduced the number of CD68^+ cells by almost 50% per myofiber in both diaphragm and TA tissues (Fig 8A & 8B). […] To quantify the average fiber size in an unbiased way, TA muscle was stained with laminin to outline myofibers, and Feret diameter of all myocytes was quantitated in a whole muscle section.
To ensure rigorous quantitation of average fiber size, TA muscle was stained with laminin to outline myofibers. […] Centrally nucleated fibers were determined by first eroding the binary mask of the muscle fibers so that only the central portion of each fiber was present. […] Using the original muscle fiber mask, Feret diameters for centrally nucleated and noncentrally nucleated fibers were then measured.

[1] = Mouse PK, i.v. and oral gavage; format: in vivo; conditions: for bioavailability: PO 10mg/Kg versus IV, Avg.
Experimental: Supplementary file pbio.2004663.s002.tif: S1 Fig IC50 and the complete pharmacokinetic profiles of NBD mimetics. (A) Dose-dependent curve of NBD mimetics ranging from 0 to 150 μM was determined by NF-κB luciferase assays in HEK293 cells. (B) Complete pharmacokinetic profiles of SR12460 and SR12343 administered i.v. or by oral gavage in mice. Underlying data can be found in S1 Data. AUC%Extrap, percentage of the area under the curve extrapolated to infinity from Tlast to infinity; AUCINF_obs, area under the curve from 0 to infinity; AUClast, area under the curve from the time of dosing to the last measurable concentration; Cmax, maximum observed concentration; Clobs, total serum clearance; HEK, human embryonic kidney 293 cells; IC50, half maximal inhibitory concentration; NBD, NEMO-binding domain; NEMO, NF-κB essential modulator; NF-κB, nuclear factor κB; T1/2, half-life; Tmax, time of maximum concentration. (TIF) Click here for additional data file.

[2] = PO 10mg/Kg, single mice and Avg., 10 mg/kg
[3] = PO 10mg/Kg, single mice and Avg., 10 mg/kg, mean
[4] = mouse, serum, po, 10 mg/kg, PO 10mg/Kg, single mice and Avg.
[5] = IV 2mg/Kg, single mice and Avg., 2 mg/kg
[6] = IV 2mg/Kg, single mice and Avg., 2 mg/kg, mean

**Q.** With `O=C(CNc1ccc(Cl)cn1)NCCc1cccc(Br)c1` [SR12343] as the compound, how does the “Feret 90's of non-centrally nucleated fibers” value (mdx mice) read?
**A.** 30.77 and 40.26 and 44.29 and 46.1

**Q.** What about the “Feret's of centrally nucleated fibers” value (mdx mice) of the same compound?
**A.** 29.8 and 35.12 and 37.33 and 39.93

**Q.** And the “AUC %Extrap” value ([1]; IV 1mg/Kg, single mice and Avg., 1 mg/kg)?
**A.** 0.68% and 0.92% and 0.30%

**Q.** And the “AUC %Extrap” value ([1]; IV 1mg/Kg, single mice and Avg., 1 mg/kg, mean)?
**A.** 0.63%

**Q.** And the AUC %Extrap [1, 2]?
**A.** 0.51% and 0.40% and 0.32%

**Q.** And the AUCINF_obs [1, 2]?
**A.** 11013 ng·min/mL and 20121 ng·min/mL

**Q.** What about the Cl_obs [1, 2] of the same compound?
**A.** 51.72 L/h/kg and 54.481 L/h/kg and 29.82 L/h/kg

**Q.** And the T1/2 [1, 2]?
**A.** 0.50 h

**Q.** And the AUC %Extrap [1, 3]?
**A.** 0.41%

**Q.** What about the AUCINF_obs [1, 3] of the same compound?
**A.** 14245 ng·min/mL

**Q.** And the Cl_obs [1, 3]?
**A.** 45.34 L/h/kg

**Q.** And the T1/2 [1, 3]?
**A.** 0.53 h

**Q.** What about the “Oral activity (comparison)” value ([1]; S1B Fig) of the same compound?
**A.** not as orally active as SR123460

**Q.** What about the Tmax ([1]; mouse, serum, iv, 1 mg/kg, IV 1mg/Kg, single mice and Avg., read-out: Tmax) of the same compound?
**A.** 0.08 h

**Q.** And the AUC(0-t) [1, 4]?
**A.** 192 ng·h/mL and 0.52 µM·h

**Q.** What about the Cmax [1, 4] of the same compound?
**A.** 523 ng/mL and 1.43 µM

**Q.** And the half-life [1, 4]?
**A.** 0.58 h

**Q.** What about the AUC(0-inf) ([1]; mouse, serum, po, 10 mg/kg, PO 10mg/Kg, single mice and Avg., read-out: AUCINF_obs (converted)) of the same compound?
**A.** 0.193 µg·h/mL

**Q.** What about the bioavailability ([1]; mouse, serum) of the same compound?
**A.** 0.86%

**Q.** Which “Feret 90's of non-centrally nucleated fibers” value (mdx mice) does the source give for `O=C(CNCCc1cc(F)cc(F)c1)Nc1ccc(Cl)cn1` [SR12460] here?
**A.** 42.38 and 57.7 and 50.27 and 41.83 and 37.95

**Q.** What about the “Feret's of centrally nucleated fibers” value (mdx mice) of the same compound?
**A.** 36.18 and 50.79 and 43.17 and 46.06 and 34.34

**Q.** What about the “AUC %Extrap” value [1, 5] of the same compound?
**A.** 17.95% and 11.52%

**Q.** What about the MRTINF_obs [1, 5] of the same compound?
**A.** 3.50 h

**Q.** And the T1/2 [1, 5]?
**A.** 2.57 h

**Q.** What about the Vss_obs [1, 5] of the same compound?
**A.** 0.17 L/kg and 0.30 L/kg

**Q.** What about the “AUC %Extrap” value [1, 6] of the same compound?
**A.** 14.74%

**Q.** What about the MRTINF_obs [1, 6] of the same compound?
**A.** 3.99 h

**Q.** And the T1/2 [1, 6]?
**A.** 2.99 h

**Q.** What about the Vss_obs [1, 6] of the same compound?
**A.** 0.23 L/kg

**Q.** What about the T1/2 [1, 2] of the same compound?
**A.** 1.99 h and 1.74 h

**Q.** And the Tmax [1, 2]?
**A.** 1.00 h

**Q.** What about the T1/2 [1, 3] of the same compound?
**A.** 2.35 h

**Q.** And the Tmax [1, 3]?
**A.** 0.67 h

**Q.** And the half-life ([1]; mouse, serum, iv, 2 mg/kg, IV 2mg/Kg, single mice and Avg.)?
**A.** 3.42 h

**Q.** What about the MRT inf ([1]; mouse, serum, iv, 2 mg/kg, IV 2mg/Kg, single mice and Avg., read-out: MRTINF_obs) of the same compound?
**A.** 4.49 h

**Q.** What about the AUC(0-t) [1, 4] of the same compound?
**A.** 47600 ng·h/mL and 146 µM·h

**Q.** And the Cmax [1, 4]?
**A.** 11200 ng/mL and 34.5 µM

**Q.** What about the half-life [1, 4] of the same compound?
**A.** 3.31 h

**Q.** What about the Tmax ([1]; mouse, serum, po, 10 mg/kg, PO 10mg/Kg, single mice and Avg., read-out: Tmax) of the same compound?
**A.** 0.5 h

**Q.** And the bioavailability ([1]; mouse, serum)?
**A.** 20.1%

Reference: PMC6013238, “Development of novel NEMO-binding domain mimetics for inhibiting IKK/NF-κB activation” (PLoS Biology, 2018)
